Assays:
[1] = tested on: K. pneumoniae (CCUG #58547); assay: Antibacterial activity against isolates (Omnilog, Biolog redox dye); assay type: cell-based, Klebsiella pneumoniae; details: Klebsiella pneumoniae, CCUG58547; ca-MH broth, 24 h, 37 °C
Method: (§1) The antibacterial activities of eight compounds (1, 3, 4, 6, 8, 10, 16, and 17) were tested against 10 different isolates of Gram-negative bacteria from human and other sources, two E. coli (CCUG #67180 and CCUG #17620/ATCC #25922, control strain), two K. pneumoniae (CCUG #58547 and CCUG #225T), two P. aeruginosa (CCUG #17619 and CCUG #59347), two A. baumannii (CCUG #57035 and CCUG #57250), E. cloacae (CCUG #6323T), and E. hormaechei (CCUG #58962) in a 96-well plate format. […] Bacterial mass from the ten isolates grown overnight on horse blood or Mueller–Hinton agar plates was suspended in ca-MH and adjusted to a final inoculum cell density of ~5 × 10^5 CFU/mL. For all assays, Biolog redox dye A diluted 100× from the stock solution was used for measurements of all ten isolates (up to a total volume of 120 µL per well). All plates included one well per isolate with only inoculum and dye but no test compound (i.e., positive control) and one well per isolate with inoculum, dye and DMSO diluted 1667×, corresponding to the DMSO concentration in the wells with the highest concentration of test compound. All measurements were performed using the Omnilog microplate reader (Biolog, Hayward, CA, USA) where the 96-well plates were read at 15 min intervals for a total of 24 h at 37 °C.

[2] = tested on: E. hormaechei (CCUG #58962); assay: as above; assay type: cell-based, Enterobacter hormaechei; details: Enterobacter hormaechei, CCUG58962; ca-MH broth, 24 h, 37 °C
Method: as §1

E. coli (CCUG #67180) = assay: as above; assay type: cell-based, Escherichia coli; details: Escherichia coli, ca-MH broth, 24 h, 37 °C
Method: (§2) The antibacterial activities of eight compounds (1, 3, 4, 6, 8, 10, 16, and 17) were tested against 10 different isolates of Gram-negative bacteria from human and other sources, two E. coli (CCUG #67180 and CCUG #17620/ATCC #25922, control strain), two K. pneumoniae (CCUG #58547 and CCUG #225T), two P. aeruginosa (CCUG #17619 and CCUG #59347), two A. baumannii (CCUG #57035 and CCUG #57250), E. cloacae (CCUG #6323T), and E. hormaechei (CCUG #58962) in a 96-well plate format. The compounds to test were 3-fold diluted in six steps in cation-adjusted Mueller-Hinton (ca-MH) broth to final concentrations spanning from 30 to 0.12 µM, i.e., a 1667–416,667 times dilution from the 50 mM stocks. Bacterial mass from the ten isolates grown overnight on horse blood or Mueller–Hinton agar plates was suspended in ca-MH and adjusted to a final inoculum cell density of ~5 × 10^5 CFU/mL. For all assays, Biolog redox dye A diluted 100× from the stock solution was used for measurements of all ten isolates (up to a total volume of 120 µL per well). All plates included one well per isolate with only inoculum and dye but no test compound (i.e., positive control) and one well per isolate with inoculum, dye and DMSO diluted 1667×, corresponding to the DMSO concentration in the wells with the highest concentration of test compound. All measurements were performed using the Omnilog microplate reader (Biolog, Hayward, CA, USA) where the 96-well plates were read at 15 min intervals for a total of 24 h at 37 °C.

[3] = tested on: E. coli (CCUG #17620/ ATCC #25922); assay: as above; assay type: cell-based, Escherichia coli; details: Escherichia coli; ca-MH broth, 24 h, 37 °C
Method: as §2

E. cloacae (CCUG #6323T) = assay: as above; assay type: cell-based, Enterobacter cloacae; details: Enterobacter cloacae; ca-MH broth, 24 h, 37 °C
Method: as §2

[4] = tested on: P. aeruginosa (CCUG #17619); assay: as above; assay type: cell-based, Pseudomonas aeruginosa; details: Pseudomonas aeruginosa, CCUG17619; ca-MH broth, 24 h, 37 °C
Method: as §2

[5] = tested on: P. aeruginosa (CCUG #59347); assay: as above; assay type: cell-based, Pseudomonas aeruginosa; details: Pseudomonas aeruginosa, CCUG59347; ca-MH broth, 24 h, 37 °C
Method: as §1

[6] = tested on: K. pneumoniae (CCUG #225T); assay: as above; assay type: cell-based, Klebsiella pneumoniae; details: Klebsiella pneumoniae; ca-MH broth, 24 h, 37 °C
Method: as §2

[7] = tested on: Escherichia coli CCUG # 17620; assay: MIC of established antibiotics, micro-broth dilution; details: CCUG17620, read-out: MIC Escherichia coli CCUG 17620
[8] = tested on: Klebsiella pneumoniae CCUG # 225T; assay: as above; details: read-out: MIC Klebsiella pneumoniae CCUG 225T
[9] = tested on: Acinetobacter baumannii CCUG # 57035; assay: as above; details: CCUG57035, read-out: MIC Acinetobacter baumannii CCUG 57035
[10] = tested on: Klebsiella pneumoniae CCUG # 58547; assay: as above; details: CCUG58547, read-out: MIC Klebsiella pneumoniae CCUG 58547
[11] = tested on: A. baumannii (CCUG #57250); assay: Antibacterial activity against isolates (Omnilog, Biolog redox dye); assay type: cell-based, Acinetobacter baumannii; details: Acinetobacter baumannii, ca-MH broth, 24 h, 37 °C
Method: as §2

[12] = tested on: Enterobacter hormaechei CCUG # 58962; assay: MIC of established antibiotics, micro-broth dilution; details: CCUG58962, read-out: MIC Enterobacter hormaechei CCUG 58962
[13] = tested on: Escherichia coli CCUG # 67180; assay: as above; details: CCUG67180, read-out: MIC Escherichia coli CCUG 67180
[14] = tested on: Pseudomonas aeruginosa CCUG # 17619; assay: as above; details: CCUG17619, read-out: MIC Pseudomonas aeruginosa CCUG 17619
[15] = tested on: Acinetobacter baumannii CCUG # 57250; assay: as above; details: CCUG57250, read-out: MIC Acinetobacter baumannii CCUG 57250
[16] = tested on: A. baumannii (CCUG #57035); assay: Antibacterial activity against isolates (Omnilog, Biolog redox dye); assay type: cell-based, Acinetobacter baumannii; details: Acinetobacter baumannii, CCUG57035; ca-MH broth, 24 h, 37 °C
Method: as §1

[17] = tested on: Pseudomonas aeruginosa CCUG # 59347; assay: MIC of established antibiotics, micro-broth dilution; details: CCUG59347, read-out: MIC Pseudomonas aeruginosa CCUG 59347
[18] = tested on: Enterobacter cloacae CCUG # 6323T; assay: as above; details: read-out: MIC Enterobacter cloacae CCUG 6323T

Compound: CO/N=C(\C(=O)N[C@@H]1C(=O)N2C(C(=O)O)=C(COC(C)=O)CS[C@H]12)c1csc(N)n1 [CTX, Cefotaxime, reference compound]
- EC50 [1]: 324 µM
- EC90 [1]: 478 µM
- EC50 [2]: 78.4 µM
- EC90 [2]: 158 µM
- EC90 (E. coli (CCUG #67180); CCUG67180, 24 h): 183 µM
- EC50 (E. coli (CCUG #67180); CCUG67180): 161 µM
- EC50 [3]: 0.2 µM
- EC90 [3]: 0.3 µM
- EC50 (E. cloacae (CCUG #6323T)): 2.1 µM
- EC90 (E. cloacae (CCUG #6323T)): 4.5 µM
- EC50 [4]: 13 µM
- EC90 [4]: 18.4 µM
- EC50 [5]: 1510 µM
- EC90 [5]: 1680 µM
- EC50 [6]: 0.2 µM
- EC90 [6]: 0.3 µM
- MIC [7]: 0.25 to 0.5 µM
- MIC [8]: 0.25 µM
- MIC [9]: > 560 µM
- MIC [10]: 560 µM
- EC90 ([11]; CCUG57250, 24 h): 48 µM
- EC50 ([11]; CCUG57250): 23.4 µM
- MIC [12]: 280 µM
- MIC [13]: 280 µM
- MIC [14]: 36 µM
- MIC [15]: 36 µM
- EC50 [16]: 430 µM
- EC90 [16]: 681 µM
- MIC [17]: > 560 µM
- MIC [18]: 9 to 36 µM

From publication PMC9404985, “Development of Dicationic Bisguanidine-Arylfuran Derivatives as Potent Agents against Gram-Negative Bacteria” (Antibiotics, 2022)
